In test [1] the target is T1, TP receptor (TBAX2R) (Homo sapiens, UniProt P21731).
T1 construct: host or cells: PathHunter beta-arrestin cell line
T1 sequence (P21731 1-343): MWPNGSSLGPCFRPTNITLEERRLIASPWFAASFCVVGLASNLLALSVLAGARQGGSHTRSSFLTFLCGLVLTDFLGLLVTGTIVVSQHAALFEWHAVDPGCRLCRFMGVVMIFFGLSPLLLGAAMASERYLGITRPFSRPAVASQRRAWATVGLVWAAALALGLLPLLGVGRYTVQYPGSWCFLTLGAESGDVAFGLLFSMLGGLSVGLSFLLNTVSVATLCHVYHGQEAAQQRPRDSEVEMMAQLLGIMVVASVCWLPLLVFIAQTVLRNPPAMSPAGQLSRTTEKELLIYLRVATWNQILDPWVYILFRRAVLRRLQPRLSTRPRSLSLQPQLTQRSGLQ
The test can be described thus: PathHunter beta-arrestin cell-based prostanoid receptor assay, TP. The protocol:
(§1) DiscoverX cell-based ligand binding assays were performed in the PathHunter beta-arrestin (EP1, EP2, EP3, EP4, FP, IP, and TP receptors) or cAMP Hunter™ (DP receptor) cell lines.
(§2) Receptor binding studies were performed in either the PathHunter® b-Arrestin (EP1, EP2, EP3, EP4, FP, IP, and TP receptors) or cAMP Hunter™ (DP receptor) cell lines. A 10 mM working stock of GP1681 was created in 1×PBS, pH 7.4. All assays were carried out in duplicate with 10 individual concentrations of GP1681. A three-fold dilution series of GP1681 was established for the initial or pilot experiment with a starting concentration of 4 uM (starting concentration was chosen based on previous Gemmus Pharma preclinical experimental results).
GP1681 was incubated with cells lines at either 37° C. or room temperature, for 90-180 minutes (temperatures and incubation times are all dependent on established optimized procedures for each receptor cell line) after which cell wells were processed and signal production detected. […] Vehicle only controls (PBS, pH 7.4) were also included for each receptor cell line. Receptor binding activity was analyzed using CBIS data analysis suite (ChemInnovation, CA). The percentage of activity was calculated using the following formula: % Activity=100%×(mean RLU of test sample−mean RLU of vehicle control)/(mean MAX control ligand−mean RLU of vehicle control). Dose curves were performed and EC50 values determined.

In test [2] the target is T2, EP4 receptor (PTGER4) (Homo sapiens, UniProt P35408).
T2 construct: expressed in transfected cells; host or cells: PathHunter β-Arrestin PTGER4 (EP4) cell line
T2 sequence (P35408 whole entry): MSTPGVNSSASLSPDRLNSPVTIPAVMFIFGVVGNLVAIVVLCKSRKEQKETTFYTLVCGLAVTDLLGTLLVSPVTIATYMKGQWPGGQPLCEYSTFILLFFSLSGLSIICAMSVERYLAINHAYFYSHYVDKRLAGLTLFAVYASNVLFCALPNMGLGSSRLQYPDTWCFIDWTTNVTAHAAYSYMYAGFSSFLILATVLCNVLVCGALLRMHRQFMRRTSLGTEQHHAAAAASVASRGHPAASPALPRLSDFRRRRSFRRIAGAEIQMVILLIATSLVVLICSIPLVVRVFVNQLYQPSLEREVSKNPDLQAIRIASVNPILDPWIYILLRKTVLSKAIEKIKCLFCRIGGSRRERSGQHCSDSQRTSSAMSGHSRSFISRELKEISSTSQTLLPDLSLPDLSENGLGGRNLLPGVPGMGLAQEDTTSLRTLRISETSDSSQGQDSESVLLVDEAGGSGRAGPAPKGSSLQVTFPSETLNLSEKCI
The test can be described thus: PathHunter β-Arrestin PTGER4 (EP4) agonist assay, optimisation of cell density and temperature. It counts as cell-based. Conditions: for EC50: read-out: RC50 (μM) / EC50, agonist. As for the experimental part:
This Example describes antagonist assay experiments performed with known EP4 receptor inhibitors. Agonist controls and antagonist binding studies were performed in the PathHunter® β-Arrestin PTGER4 (EP4) cell lines. The PathHunter® β-Arrestin assay monitors activation by bound ligands of a GPCR in a homogenous, non-imaging assay format using Enzyme Fragment Complementation (EFC) with β-galactosidase (β-Gal) as the functional reporter. A fresh 10 mM working stock of GP1681 was created in the vehicle (1×PBS, pH 7.4). Prior to setting up the GP1681-antagonist assays, the parameters of the GP1681 agonist assay were optimized for most efficient cellular activation and expression of the reporter molecule via GP1681 receptor (PTGER4) binding. Two different cell densities (5K vs 7.5K) and incubation temperatures (room temperature and 37 C) were evaluated in standard agonist format. […] Vehicle only controls (1×PBS, pH 7.4) were also included for each receptor cell line. Receptor binding activity was analyzed using CBIS data analysis suite (ChemInnovation Software, Inc., San Diego, CA, USA).
The percentage of activity was calculated using the following formula: % Activity=100%×(mean RLU of test sample−mean RLU of vehicle control)/(mean MAX control ligand−mean RLU of vehicle control). Dose curves were performed and EC50 values determined. In all rows, the assay was Arrestin, the assay target was PTGER4, and the result type was EC50 for all agonists, and IC50 for all antagonists. NI indicates no inhibition, N is number of replicates, K is cell density, and RT is room temperature.

Test [3] addresses T3, FP receptor (PTGFR) (Homo sapiens, UniProt P43088).
T3 construct: host or cells: PathHunter beta-arrestin cell line
The test can be described thus: PathHunter beta-arrestin cell-based prostanoid receptor assay, FP. The protocol:
as §1, §2
(§3) GP1681 was incubated with cells lines at either 37° C. or room temperature, for 90-180 minutes (temperatures and incubation times are all dependent on established optimized procedures for each receptor cell line) after which cell wells were processed and signal production detected. […] Receptor binding activity was analyzed using CBIS data analysis suite (ChemInnovation, CA). The percentage of activity was calculated using the following formula: % Activity=100%×(mean RLU of test sample−mean RLU of vehicle control)/(mean MAX control ligand−mean RLU of vehicle control). Dose curves were performed and EC50 values determined.

Test [4] has as its target T4, EP3 receptor (PTGER3) (Homo sapiens, UniProt P43115).
T4 construct: host or cells: PathHunter beta-arrestin cell line
T4 sequence (P43115 1-390): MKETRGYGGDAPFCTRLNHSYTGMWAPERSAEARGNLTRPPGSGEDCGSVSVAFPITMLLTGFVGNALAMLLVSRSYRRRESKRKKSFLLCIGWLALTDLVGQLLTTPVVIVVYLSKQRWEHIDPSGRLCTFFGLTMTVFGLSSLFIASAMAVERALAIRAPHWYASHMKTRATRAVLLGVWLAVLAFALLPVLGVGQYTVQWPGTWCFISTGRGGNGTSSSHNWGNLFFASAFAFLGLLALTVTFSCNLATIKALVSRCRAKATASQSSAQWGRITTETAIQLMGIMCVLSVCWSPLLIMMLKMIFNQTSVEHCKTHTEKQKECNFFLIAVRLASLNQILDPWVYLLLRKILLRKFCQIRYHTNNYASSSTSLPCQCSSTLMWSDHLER
The test is described as follows: PathHunter beta-arrestin cell-based prostanoid receptor assay, EP3. Conditions: β-Arrestin. The protocol:
as §1, §2
as §3, with “determined. […]” for “determined.”

The mark [5] stands for this setting: Run 1, GP1681 starting concentration 4 uM, β-Arrestin.

Structures are written as SMILES. Read-outs that look alike come from different tables or passages of the source. A value given as a limit tells only on which side of the number the result lay.

T3 sequence (P43088 whole entry): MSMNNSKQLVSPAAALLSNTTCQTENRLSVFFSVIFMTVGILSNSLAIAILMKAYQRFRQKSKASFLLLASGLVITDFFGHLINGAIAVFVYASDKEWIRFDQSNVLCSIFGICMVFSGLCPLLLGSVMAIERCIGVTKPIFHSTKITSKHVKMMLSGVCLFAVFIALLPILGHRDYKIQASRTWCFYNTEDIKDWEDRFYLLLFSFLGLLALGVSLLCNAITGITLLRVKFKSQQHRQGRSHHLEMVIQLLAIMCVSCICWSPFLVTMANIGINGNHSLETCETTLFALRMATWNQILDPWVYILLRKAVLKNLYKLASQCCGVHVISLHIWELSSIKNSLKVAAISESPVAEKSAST

With `CC#CCC(C)C(O)C=CC1C(O)CC2Oc3c(CCCC(=O)O)cccc3C21` (single isomer, unassigned) [GP1681, esuberaprost], the “binding to TP receptor, in words” value in test [1] is on record as “does not bind”. In addition, the EC50 was over 4 µM in test [1] (setting [5]); 11.9 µM in test [2] (5K 37C, N not given); 23.4 µM in test [2] (N = 1, 5K 37C); 12.7 µM in test [2] (N = 1, 5K RT); 22 µM in test [2] (N = 1, 7.5K 37C); 14.8 µM in test [2] (N = 1, 7.5K RT). Besides, the EC50 in test [2] (N = 2, 5K 37C) was 16.2 µM; in test [2] (N = 2, 5K RT), 16.1 µM; in test [2] (N = 2, 7.5K 37C), 18 µM; in test [2] (N = 2, 7.5K RT), 11.1 µM; in test [3] (setting [5]), over 4 µM; in test [4] (Run 1, GP1681 starting concentration 4 uM, curve for GP1681 not fully sigmoidal), 1.83 µM. The compound further came in with an EC50 in test [4] (Run 2, GP1681 starting concentration 500 μM) of 5.39 µM. Also, in test [2] (from GP1681 binding curves, used in the antagonist assays), the EC80 concentration was 45 µM. Further, in test [3], the “binding to FP receptor, in words” value is “does not bind”.
